Where a SMILES comes first, the peptide text is derived from it. [ ]: non-standard residue; d: D form. The star is where a group is joined. Sta = CC(C)C[C@H](N)[C@@H](O)CC(=O)O; Isovaleryl = CC(C)CC(=O)*
Experiments:
hog renin = settings: after the injection of hog renin into nephrectomized rats; cited from earlier work
human renin = molecular target: T1, human renin (Homo sapiens, UniProt P00797); assay: Human renin inhibition in vitro; assay type: biochemical; settings: conversion of angiotensinogen to angiotensin I, 2 h at 37° C., pH 7.4
T1 construct: purchased National Institute for Biological Standards, London
T1 sequence (P00797 67-406): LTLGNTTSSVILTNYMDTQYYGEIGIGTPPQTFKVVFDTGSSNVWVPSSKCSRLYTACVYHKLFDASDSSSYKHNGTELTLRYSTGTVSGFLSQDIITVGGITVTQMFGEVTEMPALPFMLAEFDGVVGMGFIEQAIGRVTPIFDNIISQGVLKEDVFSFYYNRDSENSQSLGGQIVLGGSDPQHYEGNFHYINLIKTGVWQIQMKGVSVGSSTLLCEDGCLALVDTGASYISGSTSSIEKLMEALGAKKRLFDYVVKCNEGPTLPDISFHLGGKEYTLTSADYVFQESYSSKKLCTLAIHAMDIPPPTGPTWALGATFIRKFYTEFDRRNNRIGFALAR
Method: Compounds of Formula I were evaluated as inhibitors of human renin in an in vitro assay, as follows: This human renin inhibition test has been previously described in detail [Papaioannou et al., Clinical and Experimental Hypertension, A7(9), 1243-1257 (1985)-]. Human renin was obtained from the National Institute for Biological Standards, London. An incubation mixture was prepared containing the following components: in a total volume of 0.25 mL: 100 mM Tris-acetate buffer at pH 7.4, 25×10^−6 Goldblatt units of renin, 0.05 mL of plasma from human volunteers taking oral contraceptives, 6.0 mM Na-EDTA, 2.4 mM phenylmethyl sulfonyl fluoride, 1.5 mM 8-hydroxyquinoline, 0.4 mg/mL bovine serum albumin (BSA), and 0.024 mg/mL neomycin sulfate. This mixture was incubated for two hours at 37° C. in the presence or absence of renin inhibitors. The produced angiotensin I was determined by radioimmunoassay (New England Nuclear kit). Test compounds to be assayed were dissolved in DMSO and diluted with 100 mM Tris-acetate buffer at pH 7.4 containing 0.5% BSA to the appropriate concentration. The final concentration of organic solvent in the reaction mixture was less than 1%. Control incubations at 37° C. were used to correct for effects of organic solvent on renin activity.

| IC50 (human renin) [nM] | SMILES | blood pressure in vivo (hog renin) |
| --- | --- | --- |
| – | CC(C)CC(=O)N[C@H](C(=O)N[C@H](C(=O)N[C@@H](CC(C)C)[C@@H](O)CC(=O)N[C@@H](C)C(=O)N[C@@H](CC(C)C)[C@@H](O)CC(=O)O)C(C)C)C(C)C [pepstatin] (Isovaleryl-VV[Sta]A[Sta]-OH) | reduce blood pressure |
| 34 | C#CC[C@H](NC(=O)[C@@H](CC(=O)N(C)CCN(C)C)Cc1ccccc1)C(=O)N[C@@H](CC1CCCCC1)[C@@H](O)[C@@H](O)CC#C (relative stereo) [Example 1, N1-[1R*-[[[1S,1R*-(cyclohexylmethyl)-2S*,3R*-dihydroxyhexynyl]amino]carbonyl]-3-butynyl]-N-4-[2-(dimethylamino)ethyl]-N-4-methyl-2S*-(phenylmethyl)Butanediamide] | – |

Reference: US6667414B2, “Use of propargyl glycine amino propargyl diol compounds for treatment of congestive heart failure” (Pharmacia Corporation, priority 1991, dated 2003)
